Data published in patent publication US4518712A, “Piperazine derivative and analgesic composition containing the same” (priority 1980, dated 1985).
Where a name gives a salt, the structure may show the parent alone.

Assays:
dd strain male mice [1] = assay: Analgesic activity test: modified Haffner method; format: in vivo; conditions: 30 min before 2 mg/kg morphine hydrochloride s.c., tail clamp, 95% confidence limits in parentheses; for ED50: Mus musculus
Method: (§1) The results of analgesic activity test and acute toxicity test performed on the compounds of this invention and aminopyrin as control are as described below.
Groups of each 10 dd strain male mice (about 19 g in body weight) were used for the test. Thirty minutes after the oral administration of the drug under test, 2 mg/kg of morphine hydrochloride was subcutaneously injected. After 15 minutes, the basal part of the mouse tail was clamped with Kocher's forcepts four times at each time interval of 15 minutes to observe the pain reaction of each mouse. The percentage effectiveness was calculated by the formula [formula] From the effectiveness data, the median effective dose (ED50) and its 95% confidence limits were calculated by the method of Litchfield-Wilcoxon.

dd strain male mice [2] = assay: Analgesic activity test: acetic acid-induced stretching method; format: in vivo; conditions: Mus musculus, oral, 30 min before 0.6% acetic acid i.p., 95% confidence limits in parentheses on the next line
Method: as §1
Groups of each 10 dd strain male mice (about 18 g in body weight) were used for the test. Each mouse was orally administered with the drug being tested. Thirty minutes after the administration, 0.1 ml/10 g of a 0.6% acetic acid solution was intraperitoneously injected. […] The percentage effectiveness was determined by the formula [formula] From the effectiveness data, the median effective dose (ED50) and its 95% confidence limits were calculated by the method of Litchfield-Wilcoxon.

dd strain male mice [3] = assay: Acute toxicity test; format: in vivo; conditions: 72 hours
Source text: as §1
(§2) Groups of each 4-6 dd strain male mice (about 19 g in body weight) were used for the test. […] When the median lethal dose was not obtainable, the dose (mg/kg) and the ratio (number of dead animals)/(number of test animals) were shown in Table 2.

Acute toxicity test = format: in vivo, mice; conditions: mouse, in vivo; oral, 72 hours of observation; dd strain male mice; 95% confidence limits in parentheses on the next line
Source text: as §1, §2

SMILES	ED50 (dd strain male mice [1]; po)	ED50 (dd strain male mice [2])	Acute toxicity, (number of dead animals)/(number of test animals) (dd strain male mice [3]; 250 mg/kg oral)	Acute toxicity, (number of dead animals)/(number of test animals) (dd strain male mice [3]; 500 mg/kg oral)	Acute toxicity, (number of dead animals)/(number of test animals) (dd strain male mice [3]; 1000 mg/kg oral)	LD50 at 72 h (Acute toxicity test)	Analgesic activity, ED50, Haffner method (dd strain male mice [1]; oral)	Acute toxicity, (number of dead animals)/(number of test animals) (dd strain male mice [3]; 100 mg/kg (so in the source) oral)	ED50 (dd strain male mice [1]; oral)
Cl.Cl.Fc1ccc(N2CCN(CC3CC3)CC2)cc1 [Compound 2, 1-(cyclopropylmethyl)-4-(4-fluorophenyl)piperazine dihydrochloride]	13.2 mg/kg	9.4 mg/kg	1/6	5/6	6/6				
C=CCN1CCN(c2cccc(C(F)(F)F)c2)CC1.Cl.Cl [Compound 14, 1-Allyl-4-(3-trifluoromethylphenyl)piperazine dihydrochloride]	7 mg/kg	13.6 mg/kg	0/6	4/6	6/6				
CC(C)N1CCN(c2cccc(C(F)(F)F)c2)CC1 [Compound 12, 1-(3-trifluoromethyl)-4-isopropylpiperazine dihydrochloride]	4.9 mg/kg	4.2 mg/kg	0/6	6/6	6/6				
FC(F)(F)c1cccc(N2CCN(CC3CC3)CC2)c1 [Compound 7]	5.5 mg/kg		0/6	2/6	6/6				
Cc1c(N(C)C)c(=O)n(-c2ccccc2)n1C [Aminopyrin, aminopyrin, reference compound]	65 mg/kg	63 mg/kg				750 mg/kg			
Clc1cccc(N2CCN(CC3CC3)CC2)c1 [Compound 3]	13.8 mg/kg		0/6	2/6	6/6				
Cl.Cl.FC(F)(F)c1cccc(N2CCN(CC3CC3)CC2)c1 [Compound 6, 1-(cyclopropylmethyl)-4-(3-trifluoromethylphenyl)piperazine dihydrochloride]	3.7 mg/kg	2.8 mg/kg	0/6	4/6	6/6				
FC(F)(F)c1cc(N2CCN(CC3CC3)CC2)ccc1Cl [Compound 11]	5.8 mg/kg	20.2 mg/kg	0/6	5/6	6/6				
FC(F)(F)c1cccc(N2CCN(CC3CC3)CC2)c1 [Compound 9]			0/6	3/6	6/6		4.9 mg/kg		
Fc1ccccc1N1CCN(CC2CC2)CC1 [Compound 1]	11 mg/kg	12.6 mg/kg	2/6	3/6				6/6	
FC(F)(F)c1cccc(N2CCN(CC3CC3)CC2)c1.O=C(O)CC(O)(CC(=O)O)C(=O)O [Compound 10, 1-(Cyclopropylmethyl)-4-(3-trifluoromethylphenyl)piperazine citrate]		8.7 mg/kg	0/6	2/6	6/6				2.5 mg/kg
Clc1ccc(N2CCN(CC3CC3)CC2)cc1Cl [Compound 5]	7.2 mg/kg	17.2 mg/kg	0/6	2/6	6/6				
Clc1ccc(N2CCN(CC3CC3)CC2)cc1 [Compound 4]	6.3 mg/kg	17.9 mg/kg	0/6	5/6	6/6				
